Test results: patent publication US20260207708A1, “THERAPEUTIC USES OF ADIPOSE-SECRETED SIGNALING PROTEIN (ADISSP)” (UNIVERSITY OF MASSACHUSETTS, priority 2023, published 2026)
Read-outs that look alike come from different tables or passages of the source.

Assays:
Akt [1] = test: Akt activation in serum-starved brown adipocytes; assay type: cell-based; conditions: for blocking of Akt activation by ADISSP: adipocytes pre-treated with inhibitor 2 hr: S961 0.5 μM, Melittin 1 μM, Gallein 5 μM, wortmannin 1 μM, LDC1267 1 μM, then ADISSP 300 nM 30 min
Description: (§1) In some cases adipocytes were pre-treated with inhibitors for 2 hr: S961 (0.5 μM), Melittin (1 μM), Gallein (5 μM), wortmannin (1 μM), and LDC1267 (1 μM).

[2] = tested on: insulin receptor substrate 1 (IRS1); test: IRS1 activation in serum-starved brown adipocytes; assay type: cell-based; conditions: ADISSP 300 nM, 30 min
Description: as §1

tyrosine phosphorylation = test: Tyrosine phosphorylation in serum-starved brown adipocytes; assay type: cell-based; conditions: ADISSP 300 nM, 30 min
Description: as §1

Glut4 = Glut4 trafficking to the plasma membrane in Myc-Glut4-GFP transfected adipocytes; assay type: cell-based; conditions: adipocytes serum-starved overnight, treated 30 min; for Glut4 localization to the plasma membrane: Myc staining without permeabilization
Description: To evaluate effects of ADISSP on Glut4 trafficking to the plasma membrane, adipocytes were transfected with a Myc-Glut4-GFP plasmid, in which Myc and GFP were fused to the extracellular and intracellular regions of Glut4, respectively. The Adipocytes were serum-starved overnight, and then treated with purified ADISSP protein or insulin for 30 min. The adipocytes were fixed without permeabilization, and stained with Myc antibody and DAPI. […] 95% of GFP-positive cells were also Myc-positive after either ADISSP or insulin treatment, while very few GFP-positive cells were Myc-positive in control samples.

euglycemic mice = assay type: in vivo; conditions: 70 nmole/kg ip, 3 hr after injection
Description: (§2) To explore the mechanism of ADISSP action in vivo, 3-month-old male mice (n=4/group) with euglycemia were intraperitoneally (ip) injected with purified ADISSP protein (70 nmole/kg) at 0 hr. Glucose and insulin levels and Akt activation were measured 3 hr after injection.

Akt [3] = test: Akt activation in adipose tissue in vivo after single ip dose; design: species or system mice; conditions: 70 nmole/kg ip, 3 hr after injection
Description: as §2

ob/ob mice [4] = test: ob/ob mice, single dose then once every 48 hours; assay type: in vivo
Description: The effects of injection of purified ADISSP protein were evaluated on hyperglycemia, hyperinsulinemia, and liver steatosis in ob/ob mice (6 male and 9 female mice in control group and 5 male and 10 female mice in treatment group), which were used as a type 2 diabetic mouse model. The mice were injected intraperitoneally with vehicle or a single dose of purified ADISSP protein (50 nmole/kg). Glucose was monitored for 46 hours. Note, no food was provided in the first 8 hours. […] The glucose-lowering effect of ADISSP protein was not due to any difference of food intake, as there was no food provided in the first 8 hours. 46 hours post the first injection, ob/ob mice were injected with ADISSP (50 nmole/kg) once every 48 hour at 8 am (arrow). Mice were fed ad libitum.

ob/ob mice [5] = assay type: in vivo
Description: To evaluate longer-term effects of treatment with ADISSP, 12-week ob/ob mice (6 male and 8 female mice in control group and 8 male and 8 female mice in treatment group) were used. Glucose levels were measured at 7 am daily. Vehicle or ADISSP protein (62.6 nmole/kg per day) was ip injected once a day at 8 am for 30 days. […] In addition, after one-month treatment of ob/ob mice with ADISSP protein, bone density was examined by X-Ray. […] Instead, a slight increase was observed, as shown in the region in the box in FIG. 7G. Loss of bone density is associated with FGF21 and diabetes drug TZDs.

DIO mice [6] = test: Two-week treatment of high fat-induced obese (DIO) mice; assay type: in vivo; conditions: 65 nmole/kg ip once a day, 14 injections
Description: In the experiment shown in FIGS. 7A-G, all daily glucose levels were measured 24-hr post ADISSP injection. A much stronger glucose reduction would have been observed if measured at earlier time points, e.g., at 6-hr or 12-hr following protein injection. […] Male mice (n=19 mice/group) were fed a high fat diet for 20 weeks to render them obese and hyperglycemia. Mice were then ip injected with ADISSP protein (65 nmole/kg) once a day at 8 am for a total of 14 injections. Glucose levels at ad libitum state were measured at 7:30 am, […]. Insulin levels and livers were examined.

DIO mice [7] = assay type: in vivo; conditions: 71 nmole/kg per day ip, one month
Description: We next performed a one-month treatment of hyperglycemic DIO mice (n=19-20 DIO mice/group) with purified ADISSP protein. Glucose levels were measured every day at 7:30 am followed by daily intraperitoneal injection of ADISSP (71 nmole/kg per day). […] Hypertriglyceridemia (FIG. 9J) and high level of Aspartate aminotransferase (AST) (indicative of liver damage caused by fatty liver) (FIG. 9K) were normalized as well.

[8] = tested on: STZ-induced type 1 diabetic mice; test: High-dose streptozotocin (STZ)-induced type 1 diabetic mice; assay type: in vivo, C57BL6 mice; conditions: STZ 200 mg/kg single dose, ADISSP 50 nmole/kg ip at 0 hr and 24 h
Description: (§3) The effects of ADISSP protein administration on blood glucose and polyuria were evaluated in streptozotocin (STZ)-induced type 1 diabetic mice. A single dose (200 mg/kg) of STZ was ip injected into C57BL6 mice. Eight days post injection, as expected, high-dose STZ caused extremely severe type 1 diabetes with ad libitum glucose level (>600 mg/dL) exceeding the upper limit of the glucose meter. The mice were ip injected with ADISSP protein (50 nmole/kg) or vehicle at 0 hr and 24 h. After each injection, mice were fasted for 6 hours before glucose measurement so the glucose level in the vehicle group would fall below 600 mg/dL. […] We were not able to continue the experiment because the mice were not healthy due to the high dose of STZ. To account for this, a low dose (50 mg/kg) of STZ was injected daily from Day 1 to Day 5 to produce healthy, type 1 diabetes mice. From Day 13, glucose was measured at 7:30 am followed by ip injection of ADISSP protein (70 nmole/kg) or vehicle once a day at 8 am for two weeks. At Day 13, glucose was measured after 2 hour fasting, all other time points were measured at ad libitum state.

[9] = tested on: STZ-induced type 1 diabetic mice; test: Low-dose streptozotocin (STZ)-induced type 1 diabetic mice; assay type: in vivo; conditions: STZ 50 mg/kg daily Day 1 to Day 5
Description: as §3

GAN diet NASH mice = test: Gubra Amylin NASH (GAN) diet mice: NASH and cardiac hypertrophy; assay type: in vivo, C57BL6J mice
Description: To examine the potential effects of Adissp protein on NASH, we fed wild-type male C57BL6J mice with the Gubra Amylin NASH (GAN) diet (Research Diets, D09100310) for 32 weeks to induce a NASH phenotype resembling human NASH. We then treated these mice with Adissp (113 nmole/kg per day) or vehicle. […] At Day 16 of the treatment, a sub-group of mice were sacrificed and NASH phenotype was examined. […] Thus, treatment with Adissp protein rapidly resolved the NASH phenotype.
The remaining mice were continuously treated with 63 nmole/kg per day Adissp protein or vehicle for 31 days.

[10] = 62.6 nmole/kg per day ip, 30 days
[11] = 113 nmole/kg per day, Day 16 of treatment

CCOc1cn(-c2ccc(F)cc2C)nc1C(=O)Nc1ccc(Oc2ccnc3cc(OC)c(OC)cc23)c(F)c1 [LDC1267]
blocking of Akt activation by ADISSP (Akt [1]): blocks

ADISSP: recombinant adipose-secreted signaling protein with C-terminal His-tag, purified from medium of transfected Expi293F cells
Akt activation (Akt [1]; serum-starved brown adipocytes, ADISSP 300 nM, 30 min): activates Akt independently of insulin receptor | activation of insulin receptor substrate 1 (IRS1) [2]: did not activate | tyrosine phosphorylation (tyrosine phosphorylation): induces a bulk of tyrosine phosphorylation | GFP-positive cells also Myc-positive (Glut4): 95% | Glut4 localization to the plasma membrane (Glut4): induced Glut4 localization to the plasma membrane | insulin secretion (euglycemic mice): did not stimulate insulin secretion | blood glucose level (euglycemic mice; 3-month-old male mice): lowers blood glucose level | Akt activation in vivo (BAT, iWAT, eWAT) (Akt [3]): activated Akt in vivo | duration of glucose-lowering effect after each subsequent injection (ob/ob mice [4]; 50 nmole/kg once every 48 hour): at least 48 hours | hyperinsulinemia (ob/ob mice [4]; 50 nmole/kg once every 48 hour): improvement in hyperinsulinemia | glucose lowered on average (ob/ob mice [4]; 50 nmole/kg once every 48 hour, fed ad libitum): 83.5 mg/dL | liver steatosis (ob/ob mice [4]; 50 nmole/kg once every 48 hour, liver colour and histology): improved | hyperglycemia (ob/ob mice [4]; injection once every 48 hours): sufficient to normalize hyperglycemia | onset of glucose lowering (ob/ob mice [4]; post injection): two | duration of glucose-lowering effect of a single dose (ob/ob mice [4]; single dose 50 nmole/kg ip): more than 20 hours | body weight gain (ob/ob mice [5]; [10]): reduced body weight gain | glucose tolerance (ob/ob mice [5]; [10]): improved glucose tolerance | insulin sensitivity (ob/ob mice [5]; [10]): improved | liver steatosis (ob/ob mice [5]; [10]): ameliorated liver steatosis | hyperglycemia (daily glucose levels) (ob/ob mice [5]; 62.6 nmole/kg per day ip, 30 days, glucose measured 24-hr post injection): normalized hyperglycemia | bone density by X-Ray (ob/ob mice [5]; mouse, in vivo): did not see decreased bone density. Instead, a slight increase was observed | fatty liver (DIO mice [6]): amelioration of fatty liver | hyperinsulinemia (DIO mice [6]): reduced hyperinsulinemia | liver weight (DIO mice [6]): reduction of liver weight | daily glucose levels (DIO mice [6]; ad libitum, 6 hr, 12 hr and 24 hr from injection): clear improvement in daily glucose levels | Aspartate aminotransferase (AST) level (DIO mice [7]): normalized | body weight (DIO mice [7]): decreased body weight | fat mass (DIO mice [7]): reduction of fat mass | fatty liver (DIO mice [7]): completely reversed fatty liver | glucose tolerance (DIO mice [7]): markedly improved | hyperglycemia (daily glucose levels) (DIO mice [7]): completely normalized hyperglycemia | hypertriglyceridemia (serum triglycerides) (DIO mice [7]): normalized | insulin sensitivity (DIO mice [7]): markedly improved | lean mass (DIO mice [7]): but not lean mass | liver weight (DIO mice [7]): normalized liver weight | surface body temperature (DIO mice [7]): higher surface body temperature | polyuria [8]: improvement in polyuria | decrease of glucose levels ([8]; 6 hours fasted after each injection): 41-48% | polyuria ([9]; ADISSP 70 nmole/kg ip once a day for two weeks): improved polyuria | blood glucose ([9]; ADISSP 70 nmole/kg ip once a day for two weeks from Day 13): markedly lowered blood glucose | fibrosis (Sirius Red staining) (GAN diet NASH mice; [11]): greatly alleviated | hepatomegaly (liver size and weight) (GAN diet NASH mice; [11]): ameliorated | inflammation (GAN diet NASH mice; [11]): ameliorated | steatosis (GAN diet NASH mice; [11]): ameliorated | hyperglycemia (blood glucose) (GAN diet NASH mice; GAN diet 32 weeks, 113 nmole/kg per day): normalized hyperglycemia | cardiac hypertrophy (heart weight and size) (GAN diet NASH mice; remaining mice continued at 63 nmole/kg per day for 31 days): resolved high fat diet-induced cardiac hypertrophy

O=C1OC2(c3ccccc31)c1ccc(O)c(O)c1Oc1c2ccc(O)c1O [Gallein]
blocking of Akt activation by ADISSP (Akt [1]): not blocked

insulin [reference compound]
GFP-positive cells also Myc-positive (Glut4): 95% | Glut4 localization to the plasma membrane (Glut4): induced Glut4 localization to the plasma membrane

CC[C@H](C)[C@H](NC(=O)CN)C(=O)NCC(=O)N[C@@H](C)C(=O)N[C@H](C(=O)N[C@@H](CC(C)C)C(=O)N[C@@H](CCCCN)C(=O)N[C@H](C(=O)N[C@@H](CC(C)C)C(=O)N[C@H](C(=O)N[C@H](C(=O)NCC(=O)N[C@@H](CC(C)C)C(=O)N1CCC[C@H]1C(=O)N[C@@H](C)C(=O)N[C@@H](CC(C)C)C(=O)N[C@H](C(=O)N[C@@H](CO)C(=O)N[C@@H](Cc1c[nH]c2ccccc12)C(=O)N[C@H](C(=O)N[C@@H](CCCCN)C(=O)N[C@@H](CCCNC(=N)N)C(=O)N[C@@H](CCCCN)C(=O)N[C@@H](CCCNC(=N)N)C(=O)N[C@@H](CCC(N)=O)C(=O)N[C@@H](CCC(N)=O)C(N)=O)[C@@H](C)CC)[C@@H](C)CC)[C@@H](C)O)[C@@H](C)O)C(C)C)C(C)C [Melittin]
blocking of Akt activation by ADISSP (Akt [1]): not blocked
